This note sets out measurements from PubChem BioAssay (NCI).

Values after ≈ are worked out from the molar mass of the structure shown.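 Each compound was tested at five concentrations against cells in 96-well plates for 48 hours. The concentration for 50% growth inhibition is given as GI50. The concentration for full growth arrest is given as TGI.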 Where only a bound is given, the exact number is not on record here.

Among the test systems are BT-549 breast; MCF7 breast; HCC-2998 colon; HL-60(TB) leukemia; M19-MEL melanoma; LXFL 529 NSCLC; SR leukemia; DMS 114 small cell lung; RXF-631 renal; SN12K1 renal; P388 leukemia; P388/ADR leukemia; HS 578T breast; 786-0 renal.
Holding throughout (assay): NCI tumour cell line growth inhibition, 48 h

`Cc1nc2nc(C)n(CCN3CCOCC3)c(=O)c2c(-c2cccc([N+](=O)[O-])c2)c1C(=O)CCCCCCCCCCN1CCC(c2ccccc2)(c2ccccc2)CC1`: the values for the GI50 with BT-549 breast, in the test with MCF7 breast and in the test on HCC-2998 colon were 2.33 µg/mL (≈ 2.87 µM), 1.67 µg/mL (≈ 2.06 µM) and 2.37 µg/mL (≈ 2.91 µM), respectively. In addition, the TGI was 4.48 µg/mL in the test on BT-549 breast, 3.65 µg/mL with MCF7 breast and 4.56 µg/mL with HCC-2998 colon.

As to `Cc1cc(=O)oc2c1cc1ccc3cccc4ccc2c1c34`, the TGI in the test on HL-60(TB) leukemia, in the test on M19-MEL melanoma and in the test with LXFL 529 NSCLC was above 100 µM in each case.

On to `ICC1CCCO1` (configuration not stated), for which the TGI in the test with SR leukemia, in the test with DMS 114 small cell lung, in the test on HL-60(TB) leukemia, in the test with LXFL 529 NSCLC, in the test with RXF-631 renal and in the test with HCC-2998 colon was above 100 µM in each case.

As to `Cc1cc(O)c2c(c1)C(=O)c1c(c(O)cc(O)c1-c1c(O)cc(O)c3c1C(=O)c1cc(C)cc(O)c1C3=O)C2=O`, the TGI was determined as 39.9 µM in the test on SN12K1 renal; 63 µM with DMS 114 small cell lung; 18.6 µM with HL-60(TB) leukemia; 59.4 µM in the test with M19-MEL melanoma; 63 µM in the test with P388 leukemia; 99.8 µM in the test on P388/ADR leukemia. In addition, the figures for the TGI in the test with MCF7 breast and with HCC-2998 colon were 48.8 µM and 35.2 µM, respectively.

`CC1(C)OCC(CO)(CO)CO1`: the TGI in the test on SR leukemia, with HL-60(TB) leukemia, in the test with MCF7 breast, with HCC-2998 colon and with HS 578T breast was above 100 µM each time.

With `CCOP(=O)(C/C=C/Cn1ncc(=O)[nH]c1=O)OCC`, the TGI in the test with HL-60(TB) leukemia, with BT-549 breast, in the test with MCF7 breast, in the test with HCC-2998 colon and in the test with HS 578T breast was above 100 µM in each case.

For `c1ccc(C2=NN2c2ccccc2)cc1`, the TGI in the test on SR leukemia, in the test on BT-549 breast, with MCF7 breast and in the test with HCC-2998 colon was above 100 µM each time.

For `O=C(O)CCC(NC(=O)c1ccc(Nc2cnc3cc(C(F)(F)F)ccc3n2)cc1)C(=O)O` (configuration not stated), the TGI in the test with SN12K1 renal, in the test on DMS 114 small cell lung, in the test with HL-60(TB) leukemia, in the test on P388 leukemia, with P388/ADR leukemia and in the test on MCF7 breast was above 100 µM throughout. This compound also came in with a TGI in the test on HCC-2998 colon above 100 µM.

In the case of `CN1CCC2(c3ccccc3)CC(=O)/C(=C/c3ccc(Cl)c(Cl)c3)C1C2` (configuration not stated), the TGI in the test on SR leukemia is 4.74 µM; in the test on HL-60(TB) leukemia, 3.46 µM; with BT-549 breast, 6.83 µM; in the test on 786-0 renal, 5.35 µM; with MCF7 breast, 17.3 µM; with HS 578T breast it was above 45.7 µM.

Take `C=C1CC(OC)(C(OC)C(=O)N[C@H]2OCO[C@H]3C2O[C@H](C[C@@H](COC)OC)C(C)(C)C3OC)O[C@H](C)[C@@H]1C` (some centres not stated): the TGI came to 15.2 µM in the test with SN12K1 renal; 13.9 µM with DMS 114 small cell lung; 1.33 µM with HL-60(TB) leukemia; 5.93 µM in the test with M19-MEL melanoma; 0.691 µM with P388 leukemia; 1.4 µM with P388/ADR leukemia. This compound also returned a TGI in the test on MCF7 breast above 47 µM.

With `O=Cc1cn(CCCCCCCCn2cc(C=O)c3ccccc32)c2ccccc12`, the TGI with SR leukemia, in the test with HL-60(TB) leukemia, with MCF7 breast, in the test on HCC-2998 colon and in the test on HS 578T breast was above 10 µM in each case.

`O=C(NN1C(=O)CS(=O)(=O)C1c1ccc(Cl)c(Cl)c1)c1ccncc1` (configuration not stated): the TGI in the test on SN12K1 renal was above 100 µM; in the test on DMS 114 small cell lung, above 100 µM; in the test with HL-60(TB) leukemia it was above 90.4 µM; with M19-MEL melanoma, above 100 µM; in the test with P388 leukemia, above 60.1 µM; with P388/ADR leukemia, above 74.8 µM. Further, the TGI with MCF7 breast and with HCC-2998 colon was above 100 µM each time.

Turning to `Cc1[nH]c(C)c(CN(C)C)c1CN(C)C`, the TGI with BT-549 breast, with 786-0 renal, in the test on MCF7 breast, in the test with HCC-2998 colon and in the test with HS 578T breast was above 100 µM throughout.

As for `O=C=C=P(c1ccccc1)(c1ccccc1)c1ccccc1`, the TGI was above 100 µM in the test on SR leukemia; above 100 µM in the test with DMS 114 small cell lung; 92.4 µM with HL-60(TB) leukemia; above 100 µM with M19-MEL melanoma; above 100 µM in the test on LXFL 529 NSCLC; above 100 µM with RXF-631 renal. The compound also gave a TGI with HCC-2998 colon above 100 µM.
